Measured values published in ChEMBL document CHEMBL2331470 (J Med Chem, 2013).
Calls of active or inactive are those of the source. The rule behind the calls is not given here.

Key:
Histone deacetylase 4 = Histone deacetylase 4 (Homo sapiens, UniProt P56524); assay: Inhibition of HDAC4 (unknown origin) assessed as fluorescence intensity measured after 60 mins incubation at room temperature by trypsin-free microfluidic lab-on-a-chip assay
Histone deacetylase 8 = target: T1, Histone deacetylase 8 (Homo sapiens, UniProt Q9BY41); assay: Inhibition of HDAC8 (unknown origin) assessed as fluorescence intensity measured after 60 mins incubation at room temperature by trypsin-free microfluidic lab-on-a-chip assay
T1 sequence (Q9BY41 whole entry): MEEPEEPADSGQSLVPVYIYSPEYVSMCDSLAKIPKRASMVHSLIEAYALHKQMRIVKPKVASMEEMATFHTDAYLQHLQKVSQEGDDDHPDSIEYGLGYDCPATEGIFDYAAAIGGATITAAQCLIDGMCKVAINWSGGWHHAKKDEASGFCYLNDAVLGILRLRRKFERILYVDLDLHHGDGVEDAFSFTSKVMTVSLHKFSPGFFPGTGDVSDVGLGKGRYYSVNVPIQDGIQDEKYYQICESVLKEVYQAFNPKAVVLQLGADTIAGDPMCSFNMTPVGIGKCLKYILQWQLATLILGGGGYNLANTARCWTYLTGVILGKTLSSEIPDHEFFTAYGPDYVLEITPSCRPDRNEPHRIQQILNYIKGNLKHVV

[1] = target: T2, Protein deacetylase HDAC6 (Homo sapiens, UniProt Q9UBN7); assay: Inhibition of HDAC6 (unknown origin) assessed as fluorescence intensity measured after 60 mins incubation at room temperature by trypsin-free microfluidic lab-on-a-chip assay
T2 sequence (Q9UBN7 whole entry): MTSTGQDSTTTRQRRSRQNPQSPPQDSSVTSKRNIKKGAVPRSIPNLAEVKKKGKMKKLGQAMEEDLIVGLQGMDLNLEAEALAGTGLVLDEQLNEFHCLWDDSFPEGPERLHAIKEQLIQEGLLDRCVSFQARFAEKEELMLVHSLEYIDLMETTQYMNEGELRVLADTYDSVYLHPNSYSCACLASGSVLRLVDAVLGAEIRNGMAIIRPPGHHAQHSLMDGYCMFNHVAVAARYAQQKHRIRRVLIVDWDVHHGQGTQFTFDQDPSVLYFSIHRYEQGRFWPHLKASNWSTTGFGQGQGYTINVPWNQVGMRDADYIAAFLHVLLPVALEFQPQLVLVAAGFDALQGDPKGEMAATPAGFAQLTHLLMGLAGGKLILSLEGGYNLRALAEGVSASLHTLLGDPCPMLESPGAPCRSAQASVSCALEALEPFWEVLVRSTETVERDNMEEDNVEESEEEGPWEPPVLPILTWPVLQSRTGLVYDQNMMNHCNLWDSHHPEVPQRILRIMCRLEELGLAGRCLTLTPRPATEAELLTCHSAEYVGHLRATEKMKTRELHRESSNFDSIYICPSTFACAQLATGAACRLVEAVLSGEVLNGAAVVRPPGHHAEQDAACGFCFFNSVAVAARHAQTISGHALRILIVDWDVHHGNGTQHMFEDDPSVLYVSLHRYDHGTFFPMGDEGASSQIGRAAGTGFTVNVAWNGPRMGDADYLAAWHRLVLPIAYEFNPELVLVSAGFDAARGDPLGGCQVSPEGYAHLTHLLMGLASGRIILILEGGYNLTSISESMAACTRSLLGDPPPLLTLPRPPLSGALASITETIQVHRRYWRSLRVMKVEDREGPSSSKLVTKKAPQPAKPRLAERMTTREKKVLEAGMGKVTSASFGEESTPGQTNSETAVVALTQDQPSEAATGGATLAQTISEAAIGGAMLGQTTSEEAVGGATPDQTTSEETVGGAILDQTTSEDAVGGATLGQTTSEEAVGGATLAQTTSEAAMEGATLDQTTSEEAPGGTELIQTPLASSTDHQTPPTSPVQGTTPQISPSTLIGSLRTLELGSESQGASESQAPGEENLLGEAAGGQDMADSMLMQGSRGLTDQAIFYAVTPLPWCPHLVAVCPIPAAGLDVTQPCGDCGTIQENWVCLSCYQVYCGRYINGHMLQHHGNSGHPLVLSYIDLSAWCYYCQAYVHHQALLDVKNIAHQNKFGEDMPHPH

Histone deacetylase 2 = Histone deacetylase 2 (Homo sapiens, UniProt Q92769); assay: Inhibition of HDAC2 (unknown origin) assessed as fluorescence intensity measured after 60 mins incubation at room temperature by trypsin-free microfluidic lab-on-a-chip assay
Histone deacetylase 3 [2] = target: T3, Histone deacetylase 3 (Homo sapiens, UniProt O15379); assay: Inhibition of HDAC3 in human HeLa cells assessed as increase in acetylated H3 at 30 uM measured after 24 hrs by Western blotting analysis; assay type: cell-based
Histone deacetylase 3 [3] = target: T3, Histone deacetylase 3; assay: Inhibition of HDAC3 (unknown origin) assessed as fluorescence intensity measured after 60 mins incubation at room temperature by trypsin-free microfluidic lab-on-a-chip assay
Histone deacetylase 9 = Histone deacetylase 9 (Homo sapiens, UniProt Q9UKV0); assay: Inhibition of HDAC9 (unknown origin) assessed as fluorescence intensity measured after 60 mins incubation at room temperature by trypsin-free microfluidic lab-on-a-chip assay
Histone deacetylase 1 = Histone deacetylase 1 (Homo sapiens, UniProt Q13547); assay: Inhibition of HDAC1 (unknown origin) assessed as fluorescence intensity measured after 60 mins incubation at room temperature by trypsin-free microfluidic lab-on-a-chip assay
[4] = target: T4, Protein deacetylase HDAC6 (Homo sapiens) (UniProt Q9UBN7); assay: Inhibition of HDAC6 in human HeLa cells assessed as increase in acetylated alpha-tubulin measured after 24 hrs by Western blotting analysis; assay type: cell-based
T4 sequence (whole entry): T2 sequence (Q9UBN7 whole entry)

Histone deacetylase 5 = Histone deacetylase 5 (Homo sapiens, UniProt Q9UQL6); assay: Inhibition of HDAC5 (unknown origin) assessed as fluorescence intensity measured after 60 mins incubation at room temperature by trypsin-free microfluidic lab-on-a-chip assay
Histone deacetylase 5, sequence (Q9UQL6 whole entry): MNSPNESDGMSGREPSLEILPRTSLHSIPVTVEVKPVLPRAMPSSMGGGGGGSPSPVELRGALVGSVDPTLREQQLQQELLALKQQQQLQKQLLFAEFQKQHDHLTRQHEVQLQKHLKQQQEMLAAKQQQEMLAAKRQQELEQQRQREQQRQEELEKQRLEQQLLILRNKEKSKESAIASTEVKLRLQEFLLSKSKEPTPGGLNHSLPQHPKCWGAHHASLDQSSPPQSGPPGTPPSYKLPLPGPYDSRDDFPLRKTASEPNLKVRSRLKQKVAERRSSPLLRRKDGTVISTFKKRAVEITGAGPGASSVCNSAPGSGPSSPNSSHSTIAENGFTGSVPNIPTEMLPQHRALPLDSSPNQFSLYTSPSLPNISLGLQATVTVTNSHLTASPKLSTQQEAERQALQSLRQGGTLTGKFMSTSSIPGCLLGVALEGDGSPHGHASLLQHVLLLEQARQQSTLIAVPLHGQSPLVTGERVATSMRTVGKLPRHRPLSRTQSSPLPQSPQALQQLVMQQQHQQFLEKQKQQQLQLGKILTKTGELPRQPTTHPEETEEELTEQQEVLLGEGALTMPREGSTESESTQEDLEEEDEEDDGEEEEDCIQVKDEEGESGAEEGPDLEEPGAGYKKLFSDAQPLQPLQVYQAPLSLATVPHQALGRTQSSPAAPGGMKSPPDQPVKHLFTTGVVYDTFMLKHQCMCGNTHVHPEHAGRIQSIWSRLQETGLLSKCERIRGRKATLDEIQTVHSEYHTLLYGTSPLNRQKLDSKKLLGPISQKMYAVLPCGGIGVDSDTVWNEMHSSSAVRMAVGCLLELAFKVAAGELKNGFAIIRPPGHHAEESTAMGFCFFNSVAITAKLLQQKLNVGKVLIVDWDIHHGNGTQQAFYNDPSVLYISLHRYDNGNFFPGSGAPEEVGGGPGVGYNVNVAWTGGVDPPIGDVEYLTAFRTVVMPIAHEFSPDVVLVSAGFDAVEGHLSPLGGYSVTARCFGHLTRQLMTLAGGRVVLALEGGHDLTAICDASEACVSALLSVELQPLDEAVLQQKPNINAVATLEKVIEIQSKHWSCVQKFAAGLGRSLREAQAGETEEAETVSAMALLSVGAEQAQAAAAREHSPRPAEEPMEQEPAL

Histone deacetylase 4, sequence (P56524 whole entry): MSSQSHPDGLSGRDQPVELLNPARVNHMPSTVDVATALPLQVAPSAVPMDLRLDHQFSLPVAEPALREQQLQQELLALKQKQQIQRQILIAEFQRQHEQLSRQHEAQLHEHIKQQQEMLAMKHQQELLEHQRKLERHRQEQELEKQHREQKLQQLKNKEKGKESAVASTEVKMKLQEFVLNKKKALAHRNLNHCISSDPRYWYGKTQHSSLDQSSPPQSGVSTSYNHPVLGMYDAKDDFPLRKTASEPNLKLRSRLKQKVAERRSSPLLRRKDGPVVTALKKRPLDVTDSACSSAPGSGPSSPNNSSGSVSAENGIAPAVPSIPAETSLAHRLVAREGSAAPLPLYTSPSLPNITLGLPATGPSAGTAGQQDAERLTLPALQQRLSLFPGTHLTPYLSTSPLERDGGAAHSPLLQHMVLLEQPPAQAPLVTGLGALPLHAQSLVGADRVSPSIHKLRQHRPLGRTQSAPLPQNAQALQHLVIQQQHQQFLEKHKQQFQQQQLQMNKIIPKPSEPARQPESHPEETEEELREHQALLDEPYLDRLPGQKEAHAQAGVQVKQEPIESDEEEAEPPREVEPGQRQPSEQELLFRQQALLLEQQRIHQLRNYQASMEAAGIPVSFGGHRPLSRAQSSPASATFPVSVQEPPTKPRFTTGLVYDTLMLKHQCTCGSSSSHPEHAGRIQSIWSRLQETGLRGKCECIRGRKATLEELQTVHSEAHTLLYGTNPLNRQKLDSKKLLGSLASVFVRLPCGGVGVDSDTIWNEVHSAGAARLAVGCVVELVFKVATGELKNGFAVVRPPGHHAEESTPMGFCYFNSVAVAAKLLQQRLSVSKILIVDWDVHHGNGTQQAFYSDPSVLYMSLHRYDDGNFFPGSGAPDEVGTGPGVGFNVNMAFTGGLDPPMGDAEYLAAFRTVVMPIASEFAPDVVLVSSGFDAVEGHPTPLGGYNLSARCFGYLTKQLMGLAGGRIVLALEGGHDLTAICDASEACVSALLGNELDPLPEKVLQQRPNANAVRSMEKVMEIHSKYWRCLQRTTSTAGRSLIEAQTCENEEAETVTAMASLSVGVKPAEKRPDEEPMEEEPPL
T3 sequence (O15379 whole entry): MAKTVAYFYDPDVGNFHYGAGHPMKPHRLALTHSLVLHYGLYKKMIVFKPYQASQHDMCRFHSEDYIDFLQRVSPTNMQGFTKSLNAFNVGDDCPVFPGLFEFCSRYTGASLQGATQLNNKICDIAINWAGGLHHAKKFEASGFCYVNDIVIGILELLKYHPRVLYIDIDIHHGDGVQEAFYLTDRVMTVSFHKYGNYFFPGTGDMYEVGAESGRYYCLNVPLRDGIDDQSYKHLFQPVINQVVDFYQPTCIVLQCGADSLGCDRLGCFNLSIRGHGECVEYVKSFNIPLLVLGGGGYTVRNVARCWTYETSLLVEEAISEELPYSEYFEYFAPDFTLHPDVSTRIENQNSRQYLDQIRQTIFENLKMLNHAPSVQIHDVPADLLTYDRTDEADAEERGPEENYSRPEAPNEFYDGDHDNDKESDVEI
Histone deacetylase 2, sequence (Q92769 whole entry): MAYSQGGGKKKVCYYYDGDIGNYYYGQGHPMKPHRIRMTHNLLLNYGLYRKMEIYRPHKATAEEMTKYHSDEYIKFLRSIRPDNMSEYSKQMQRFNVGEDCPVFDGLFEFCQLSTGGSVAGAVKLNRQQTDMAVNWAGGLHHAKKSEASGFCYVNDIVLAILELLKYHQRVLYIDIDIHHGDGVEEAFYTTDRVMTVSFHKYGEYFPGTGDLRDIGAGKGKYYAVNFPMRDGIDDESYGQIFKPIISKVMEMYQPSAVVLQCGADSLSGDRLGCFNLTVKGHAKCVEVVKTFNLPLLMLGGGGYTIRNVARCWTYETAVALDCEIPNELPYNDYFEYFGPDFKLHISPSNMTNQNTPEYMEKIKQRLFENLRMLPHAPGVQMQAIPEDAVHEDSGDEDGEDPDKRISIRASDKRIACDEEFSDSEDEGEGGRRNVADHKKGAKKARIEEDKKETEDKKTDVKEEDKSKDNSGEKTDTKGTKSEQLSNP
Histone deacetylase 9, sequence (Q9UKV0 whole entry): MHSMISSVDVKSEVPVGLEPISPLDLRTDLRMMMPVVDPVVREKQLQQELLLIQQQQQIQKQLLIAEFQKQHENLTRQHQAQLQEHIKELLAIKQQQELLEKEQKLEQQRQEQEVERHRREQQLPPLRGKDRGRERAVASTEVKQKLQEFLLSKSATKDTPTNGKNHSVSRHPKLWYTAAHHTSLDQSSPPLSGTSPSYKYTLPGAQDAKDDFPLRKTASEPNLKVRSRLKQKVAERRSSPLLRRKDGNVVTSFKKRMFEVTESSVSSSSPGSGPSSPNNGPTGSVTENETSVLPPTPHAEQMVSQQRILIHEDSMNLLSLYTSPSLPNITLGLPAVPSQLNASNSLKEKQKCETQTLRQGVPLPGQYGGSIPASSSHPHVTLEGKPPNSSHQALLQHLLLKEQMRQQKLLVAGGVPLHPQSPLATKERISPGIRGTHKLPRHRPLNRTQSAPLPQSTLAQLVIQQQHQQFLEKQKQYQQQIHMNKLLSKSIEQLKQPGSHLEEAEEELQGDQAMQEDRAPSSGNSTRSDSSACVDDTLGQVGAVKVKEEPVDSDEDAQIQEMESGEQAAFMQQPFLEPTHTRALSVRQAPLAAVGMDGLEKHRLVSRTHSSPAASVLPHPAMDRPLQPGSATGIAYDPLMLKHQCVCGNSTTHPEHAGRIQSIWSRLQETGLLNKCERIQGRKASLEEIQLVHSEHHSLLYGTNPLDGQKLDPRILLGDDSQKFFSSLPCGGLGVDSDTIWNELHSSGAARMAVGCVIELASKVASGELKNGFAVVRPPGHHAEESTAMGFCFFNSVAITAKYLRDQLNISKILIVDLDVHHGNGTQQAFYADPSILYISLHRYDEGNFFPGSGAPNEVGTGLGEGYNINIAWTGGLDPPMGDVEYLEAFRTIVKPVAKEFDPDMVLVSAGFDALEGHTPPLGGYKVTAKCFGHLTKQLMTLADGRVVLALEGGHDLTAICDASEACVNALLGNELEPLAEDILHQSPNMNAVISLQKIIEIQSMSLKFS
Histone deacetylase 1, sequence (Q13547 whole entry): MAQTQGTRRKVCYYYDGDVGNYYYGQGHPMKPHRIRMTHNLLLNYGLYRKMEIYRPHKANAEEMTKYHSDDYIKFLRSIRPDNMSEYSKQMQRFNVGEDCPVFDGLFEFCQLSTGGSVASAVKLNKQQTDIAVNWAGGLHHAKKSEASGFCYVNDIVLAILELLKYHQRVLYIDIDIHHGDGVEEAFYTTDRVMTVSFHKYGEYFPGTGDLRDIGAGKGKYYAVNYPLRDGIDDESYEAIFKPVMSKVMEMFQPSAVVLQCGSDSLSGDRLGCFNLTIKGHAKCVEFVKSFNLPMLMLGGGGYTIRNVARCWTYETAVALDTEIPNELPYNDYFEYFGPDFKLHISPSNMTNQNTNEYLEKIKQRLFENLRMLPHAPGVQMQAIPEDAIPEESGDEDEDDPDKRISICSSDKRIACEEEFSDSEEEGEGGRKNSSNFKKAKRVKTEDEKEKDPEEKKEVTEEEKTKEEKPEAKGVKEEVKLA

Compound | IC50 (Histone deacetylase 4) [nM] | IC50 (Histone deacetylase 8) [nM] | IC50 [1] [nM] | IC50 (Histone deacetylase 2) [nM] | inhibition (Histone deacetylase 3 [2]) | inhibition [4] | IC50 (Histone deacetylase 3 [3]) [nM] | IC50 (Histone deacetylase 9) [nM] | IC50 (Histone deacetylase 1) [nM] | IC50 (Histone deacetylase 5) [nM]
O=C(NO)c1ccc(C(=O)NCCc2ccccc2)cc1 | > 33300 | 1150 | – | – | – | – | – | – | – | –
O=C(NO)c1ccc(C(=O)NCc2ccccc2)cc1 | > 33300 | 1030 | 7 | 381 | – | – | – | – | – | –
O=C(NO)c1ccc(C(=O)NCCc2ccncc2)cc1 | > 33300 | 1330 | 8 | – | – | – | – | – | – | –
CNC(=O)c1ccc(C(=O)NO)cc1 | > 33300 | 1950 | 28 | – | inactive | Active | – | – | – | –
O=C(NO)c1ccc(C(=O)Nc2ccccc2)cc1 | > 33300 | 689 | 37 | – | – | – | – | – | – | –
O=C(NO)C1CCCCC1 | > 33300 | 3720 | 376 | > 33300 | – | – | – | – | – | –
O=C(NO)c1ccccc1 [BENZOHYDROXAMATE] | > 33300 | 1920 | 115 | 7910 | inactive | Active | 7830 | > 33300 | 4730 | > 33300
O=C(Cc1ccccc1)NO [PHENYLACETOHYDROXAMIC ACID] | > 33300 | 11600 | – | > 33300 | – | – | – | – | – | –
O=C(CCc1ccccc1)NO | > 33300 | 2350 | 448 | 2720 | – | – | – | – | – | –

Continued, in another order:

IC50 (Histone deacetylase 4) [nM] | IC50 (Histone deacetylase 8) [nM] | IC50 [1] [nM] | IC50 (Histone deacetylase 2) [nM] | inhibition (Histone deacetylase 3 [2]) | inhibition [4] | Compound | IC50 (Histone deacetylase 3 [3]) [nM] | IC50 (Histone deacetylase 9) [nM] | IC50 (Histone deacetylase 1) [nM] | IC50 (Histone deacetylase 5) [nM]
> 33300 | 20900 | 1360 | – | – | – | CN1CCN(CCNC(=O)c2ccc(C(=O)NO)cc2)CC1 | – | – | – | –
21800 | 1090 | 30 | 1790 | inactive | Dose-dependent effect | O=C(NO)C1=CCCC1 | 694 | > 33300 | 638 | 18300
19500 | 759 | 22 | 457 | – | – | O=C(/C=C/c1ccccc1)NO | – | – | – | –
9130 | 431 | 12 | 1050 | inactive | Active | O=C(NO)C1=CCCCC1 | – | – | – | –
